By viability is commonly meant a read-out of living cells in per cent, often relative to untreated cells.

The text below walks through data of paper PMC12040169 (PLOS Biology, 2025).

SMILES strings stand for the structures.

This series can be described thus: in vitro. The settings on record: human, hela cells, % viability.
Take `COCCNc1nc(-c2ccoc2)cn2ccnc12` [CBK066416]: the viability at 28.5 h, 10 µM was determined as 104%.

As to `CCNc1nc(-c2ccc(S(C)(=O)=O)cc2)cn2ccnc12` [CBK066452], the viability at 28.5 h, 10 µM is 87.1%.

For the molecule `Nc1ccc(-c2cn3ccnc3c(Nc3ccc(Cl)cc3)n2)cc1` [CBK066453], the viability at 28.5 h, 10 µM came out at 87%.

As for `CN(C)CCN(C)c1nc(-c2ccc(C(C)(C)C)cc2)cn2ccnc12` [CBK066477], the viability at 28.5 h, 10 µM came to 107%.

In the case of `Cc1cccc(-c2cn3ccnc3c(N3CCN(c4ccccn4)CC3)n2)c1` [CBK066478], the viability at 28.5 h, 10 µM was 89.3%.

In the case of `CSc1ccc(-c2cn3ccnc3c(NCCc3ccncc3)n2)cc1` [CBK066479], the viability at 28.5 h, 10 µM came out at 102%.

For the molecule `CCNc1nc(-c2cc(Cl)cc(Cl)c2)cn2ccnc12` [CBK066483], the viability at 28.5 h, 10 µM worked out at 89.6%.

In the case of `CCNc1nc(-c2ccc(SCC)cc2)cn2ccnc12` [CBK066489], the viability at 28.5 h, 10 µM stood at 114%.

In the case of `Clc1ccc(Nc2nc(-c3ccoc3)cn3ccnc23)cc1` [CBK066497], the viability at 28.5 h, 10 µM stood at 102%.

In the case of `Cc1csc(-c2cn3ccnc3c(N(C)CCN(C)C)n2)c1` [CBK066553], the viability at 28.5 h, 10 µM was 96.3%.

For `CCCNc1nc(-c2ccc(F)c(F)c2)cn2ccnc12` [CBK066573], the viability at 28.5 h, 10 µM worked out at 94.8%.

With `CCOc1cccc(-c2cn3ccnc3c(NCCc3ccccn3)n2)c1` [CBK066586], the viability at 28.5 h, 10 µM amounted to 94.4%.

Regarding `Nc1ccc(-c2cn3ccnc3c(NCc3ccccc3)n2)cc1` [CBK066592], the viability at 28.5 h, 10 µM was determined as 108%.

Consider `CSc1ccc(-c2cn3ccnc3c(N3CCN(CCO)CC3)n2)cc1` [CBK066596], for which the viability at 28.5 h, 10 µM was 86.6%.

Take `c1coc(CNc2nc(-c3ccoc3)cn3ccnc23)c1` [CBK066610]: the viability at 28.5 h, 10 µM was 98.8%.

On to `CCOc1cccc(-c2cn3ccnc3c(N3CCN(CCO)CC3)n2)c1` [CBK066612], for which the viability at 28.5 h, 10 µM was determined as 95.9%.

Regarding `COc1cc(CNc2nc(-c3ccc(C(C)(C)C)cc3)cn3ccnc23)cc(OC)c1OC` [CBK066615], the viability at 28.5 h, 10 µM is 99.3%.

As for `CCCNc1nc(-c2ccc(SC)cc2)cn2ccnc12` [CBK066619], the viability at 28.5 h, 10 µM turned out to be 95.5%.

Take `CCCNc1nc(-c2ccc(C)c(C)c2)cn2ccnc12` [CBK066627]: the viability at 28.5 h, 10 µM worked out at 101%.

As to `FC(F)(F)c1cccc(-c2cn3ccnc3c(NCc3ccncc3)n2)c1` [CBK066632], the viability at 28.5 h, 10 µM came out at 97.8%.

Turning to `c1ccc(CCNc2nc(-c3cccs3)cn3ccnc23)nc1` [CBK066633], the viability at 28.5 h, 10 µM worked out at 101%.

As to `CN1CCN(c2nc(-c3ccoc3)cn3ccnc23)CC1` [CBK066645], the viability at 28.5 h, 10 µM was 97.1%.

With `Clc1cc(Cl)cc(-c2cn3ccnc3c(NCc3ccncc3)n2)c1` [CBK066664], the viability at 28.5 h, 10 µM came out at 94.3%.

For `Cc1cc(-c2cn3ccnc3c(N3CCOCC3)n2)cc(C)c1O` [CBK066691], the viability at 28.5 h, 10 µM was found to be 97.4%.

Turning to `OCC1CCCN1c1nc(-c2ccc(Oc3ccccc3)cc2)cn2ccnc12` (stereo not drawn) [CBK066713], the viability at 28.5 h, 10 µM was determined as 100%.

For `CCOc1cccc(-c2cn3ccnc3c(NCc3cc(OC)c(OC)c(OC)c3)n2)c1` [CBK066717], the viability at 28.5 h, 10 µM was determined as 96.7%.

Regarding `c1cn2cc(-c3ccoc3)nc(NC3CC3)c2n1` [CBK066720], the viability at 28.5 h, 10 µM was determined as 102%.

For the molecule `COC(=O)c1ccc(-c2cn3ccnc3c(NCc3ccncc3)n2)cc1` [CBK066734], the viability at 28.5 h, 10 µM amounted to 88.2%.

As for `O=C1N=C(NC2CCCCCC2)SC1Cc1nc2ccccc2[nH]1` (stereo not drawn) [CBK066789], the viability at 28.5 h, 10 µM was found to be 83.7%.

For the molecule `CCN(Cc1cncn1C)C(CC1CCCCC1)c1ccccc1` (stereo not drawn) [CBK066815T], the viability at 28.5 h, 10 µM stood at 122%.

For `O=C(Nc1ccc(Br)cc1C(=O)O)c1cccs1` [CBK066822], the viability at 28.5 h, 10 µM turned out to be 86.8%.

On to `COC(=O)c1sccc1Oc1ccc([N+](=O)[O-])cn1` [CBK066826], for which the viability at 28.5 h, 10 µM worked out at 115%.

Regarding `N#Cc1cc(F)cc(F)c1NC(=O)c1cccs1` [CBK066832], the viability at 28.5 h, 10 µM worked out at 90.2%.

For the molecule `O=C(Nc1ccc(Br)cc1C(=O)c1ccccc1)c1ccc([N+](=O)[O-])s1` [CBK066838], the viability at 28.5 h, 10 µM came to 111%.

With `N#Cc1sc(-c2ccc(F)cc2)cc1NC(=O)c1cccc([N+](=O)[O-])c1` [CBK066845], the viability at 28.5 h, 10 µM was 93.3%.

Regarding `N#Cc1ccc(-c2cccs2)nc1SCC(=O)Nc1ccc([N+](=O)[O-])cc1` [CBK066850], the viability at 28.5 h, 10 µM turned out to be 87.5%.

Regarding `COC(=O)c1sccc1NC(=O)c1ccccc1Cl` [CBK066860], the viability at 28.5 h, 10 µM stood at 65.5%.

Consider `Cc1sc(C(N)=O)cc1[N+](=O)[O-]` [CBK066863], for which the viability at 28.5 h, 10 µM stood at 106%.

Turning to `CN1CCN(c2ccnc3cc(Cl)ccc23)CC1` [CBK066867C], the viability at 28.5 h, 10 µM came to 86%.

As to `Cc1cc(N2CCN(CC(=O)c3ccc(Cl)cc3)CC2)c2ccccc2n1` [CBK066868], the viability at 28.5 h, 10 µM turned out to be 106%.

Turning to `COc1ccccc1N1CCN(CC2CN(c3ccccc3)c3ccccc3O2)CC1` (stereo not drawn) [CBK066872C], the viability at 28.5 h, 10 µM was determined as 84.7%.

On to `c1ccc(N2CCN(CC3CN(c4ccccc4)c4ccccc4O3)CC2)cc1` (stereo not drawn) [CBK066876], for which the viability at 28.5 h, 10 µM came to 86%.

Consider `CN1CCN(C2c3ccccc3Oc3ccccc32)CC1` [CBK066891], for which the viability at 28.5 h, 10 µM came to 93%.

Turning to `c1ccc(-c2nnc3ccccc3c2NCCCN2CCOCC2)cc1` [CBK066892], the viability at 28.5 h, 10 µM worked out at 93.9%.

On to `c1ccc(N2CCN(C3c4ccccc4Sc4ccccc43)CC2)cc1` [CBK066894], for which the viability at 28.5 h, 10 µM was 92.1%.

With `COc1ccc2nc(C)cc(N3CCOCC3)c2c1` [CBK066896], the viability at 28.5 h, 10 µM was 91.2%.

`CCOc1ccc(-c2cc(C(=O)N3CCN(C)CC3)c3ccccc3n2)cc1` [CBK066900]: the viability at 28.5 h, 10 µM was determined as 99%.

With `Clc1ccc(N2CCN(c3cnc4ccccc4n3)CC2)cc1Cl` [CBK066903], the viability at 28.5 h, 10 µM was 97.8%.

As for `CN1CCN(c2cc3ncccc3cc2F)CC1` [CBK066904], the viability at 28.5 h, 10 µM turned out to be 105%.

With `COc1ccc2[nH]cc(CCNC(=O)[C@@H]3Cc4c([nH]c5ccccc45)C4(CCN(Cc5ccc(F)cc5)C4)N3)c2c1` (stereo partly drawn) [CBK066937], the viability at 28.5 h, 10 µM was determined as 98%.

With `CC(=O)N1CCc2c([nH]c3ccccc23)C1CCN(C)Cc1ccc(F)cc1` (stereo not drawn) [CBK066969], the viability at 28.5 h, 10 µM worked out at 93.9%.

Consider `Fc1ccc(OCCNCC2NCCc3c2[nH]c2ccccc32)cc1` (stereo not drawn) [CBK066972], for which the viability at 28.5 h, 10 µM was 92.8%.

In the case of `O=C1N=C(NCC2CCCCC2)SC1CC(=O)N1Cc2ccccc2C1` (stereo not drawn) [CBK067016], the viability at 28.5 h, 10 µM came out at 85.1%.

As for `Cc1c(Cl)cccc1CNC(=O)CC1SC(NCC2CCCCC2)=NC1=O` (stereo not drawn) [CBK067017], the viability at 28.5 h, 10 µM stood at 91.7%.

As for `O=c1nc(NC2CCCCC2)sc2ncccc12` [CBK067024T], the viability at 28.5 h, 10 µM is 92.6%.

Turning to `COc1ccc(C(=O)NCC2(c3ccc(OC)c(OC)c3)CCCCC2)c(OC)c1` [CBK067049], the viability at 28.5 h, 10 µM was 82.8%.

For the molecule `COc1ccc(C2(CNC(=O)c3ccc(C)cc3)CCOCC2)cc1` [CBK067060], the viability at 28.5 h, 10 µM worked out at 108%.

`CN(c1ccc(C(O)(C(F)(F)F)C(F)(F)F)cc1)S(=O)(=O)c1cccs1` [CBK067061]: the viability at 28.5 h, 10 µM amounted to 107%.

On to `COc1ccc(C2N3CCCN2CC3)cc1` (stereo not drawn) [CBK067068], for which the viability at 28.5 h, 10 µM was 92.3%.

`Cc1nn(C)c(Cl)c1S(=O)(=O)Nc1cccc(-c2cnco2)c1` [CBK067107]: the viability at 28.5 h, 10 µM came to 78.8%.

On to `Cc1noc(C)c1S(=O)(=O)Nc1cccc(-c2cnco2)c1` [CBK067108], for which the viability at 28.5 h, 10 µM is 97.1%.

As for `O=S(=O)(Nc1cccc(-c2cnco2)c1)c1ccc(Br)cc1C(F)(F)F` [CBK067118], the viability at 28.5 h, 10 µM came out at 93.4%.

Regarding `O=S(=O)(Nc1cccc(-c2cnco2)c1)c1ccc(-c2cc(C(F)(F)F)on2)s1` [CBK067124], the viability at 28.5 h, 10 µM was found to be 100%.

Consider `O=[N+]([O-])c1cc(S(=O)(=O)Nc2cccc(-c3cnco3)c2)ccc1Cl` [CBK067125], for which the viability at 28.5 h, 10 µM was 95.7%.

Turning to `O=S(=O)(Nc1cccc(-c2cnco2)c1)c1cc(C(F)(F)F)cc(C(F)(F)F)c1` [CBK067127], the viability at 28.5 h, 10 µM was 109%.

Consider `Cc1nn(C)c(Cl)c1S(=O)(=O)Nc1ccc2cn[nH]c2c1` [CBK067141], for which the viability at 28.5 h, 10 µM was 90.2%.

Consider `Cn1nc(-c2ccc(S(=O)(=O)Nc3ccc4cn[nH]c4c3)s2)cc1C(F)(F)F` [CBK067156], for which the viability at 28.5 h, 10 µM was 92.8%.

On to `N#Cc1cn(S(=O)(=O)c2cccc(C(F)(F)F)c2)nc1N` [CBK067225], for which the viability at 28.5 h, 10 µM turned out to be 92.6%.

As to `Cc1cc(NS(=O)(=O)c2cccc3cccnc23)n(C)n1` [CBK067242], the viability at 28.5 h, 10 µM came out at 89.1%.

On to `Cc1cc(NS(=O)(=O)c2cccc([N+](=O)[O-])c2)n(C)n1` [CBK067243], for which the viability at 28.5 h, 10 µM amounted to 99.2%.

As for `Cc1cc(NS(=O)(=O)c2cccc3nsnc23)n(C)n1` [CBK067246], the viability at 28.5 h, 10 µM was 95.4%.

Turning to `Cc1cc(NS(=O)(=O)c2cccc3nonc23)n(C)n1` [CBK067247], the viability at 28.5 h, 10 µM stood at 93.7%.

As for `Cc1cc(NS(=O)(=O)c2ccc(Oc3ccccc3)cc2)n(C)n1` [CBK067249], the viability at 28.5 h, 10 µM worked out at 96.2%.

Consider `Cc1cc(NS(=O)(=O)c2ccc3oc(=O)ccc3c2)n(C)n1` [CBK067250], for which the viability at 28.5 h, 10 µM amounted to 99.6%.

`Cc1cc(NS(=O)(=O)c2csc3ccccc23)n(C)n1` [CBK067251]: the viability at 28.5 h, 10 µM worked out at 89.5%.

For the molecule `Cc1cc(NS(=O)(=O)c2ccc(N3CCOCC3)nc2)n(C)n1` [CBK067253], the viability at 28.5 h, 10 µM stood at 117%.

For `Cc1cc(NS(=O)(=O)c2ccc(Cl)c(Cl)c2)n(C)n1` [CBK067254], the viability at 28.5 h, 10 µM was 109%.

With `Cc1cc(NS(=O)(=O)c2ccc(Br)cc2C(F)(F)F)n(C)n1` [CBK067255], the viability at 28.5 h, 10 µM was determined as 107%.

For the molecule `Cc1cc(NS(=O)(=O)c2ccc(-c3ccon3)s2)n(C)n1` [CBK067257], the viability at 28.5 h, 10 µM was 85.4%.

As for `Cc1cc(NS(=O)(=O)c2ccc(Cl)c([N+](=O)[O-])c2)n(C)n1` [CBK067259], the viability at 28.5 h, 10 µM is 96.8%.

In the case of `Cc1cc(NS(=O)(=O)c2cc(C(=O)O)c(Cl)cc2F)n(C)n1` [CBK067260], the viability at 28.5 h, 10 µM worked out at 102%.
